Experimental data reported in patent EP0662975B1, “2-SUBSTITUTED ADENOSINES WITH A-2 RECEPTOR AFFINITY” (priority 1992, dated 1994).

Tests used:
A-2 receptor = conditions: rat brain slice assay; cited from earlier work
adenosine A-2 receptors = molecular target: T1, adenosine A-2 receptors (Rattus norvegicus, UniProt P30543); test: Test for affinity for brain adenosine A-2 receptors ([3H]NECA competition, striatal membranes); type: binding; conditions: for Ki: rat brain striatum membranes, [3H]NECA, read-out: A-2 Receptor Ki; for A-1 Ki/A-2 Ki: ratio of A-1 Ki to A-2 Ki (selectivity)
T1 construct: from tissue; host or cells: striatal membranes of young male C-D rats (Charles River)
Source text: The test described below was used to determine the potency of test compounds to compete with the ligand [3H]-5'-N-ethyl-carboxamidoadenosine (NECA) for the adenosine A-2 receptors prepared from animal brain membranes. (See also R.R. Bruns, G.H. Lu, and T.A. […] Pharmacol., 29, 331-346 (1986).) Young male rats (C-D strain), obtained from Charles River, are killed by decapitation and the brains are removed. Membranes for ligand binding are isolated from rat brain striatum. The tissue is homogenized in 20 vol ice-cold 50 mM Tris-HCl buffer (pH 7.7) using a polytron (setting for 6 to 20 seconds). The homogenate is centrifuged at 50,000 x g for 10 minutes at 4°C. The pellet is again homogenized in a polytron in 20 vol of buffer, and centrifuged as before. The pellet is finally resuspended in 40 vol of 50 mM Tris-HCl (pH 7.7) per gram of original wet weight of tissue. […] Incubations are carried out at 25°C for 60 minutes. Each tube is filtered through GF/B glass fiber filters using a vacuum. The filters are rinsed two times with 5 ml of the ice-cold buffer. The membranes on the filters are transferred to scintillation vials to which 8 ml of Omnifluor with 5% Protosol is added. The filters are counted by liquid scintillation spectrometry. Specific binding of [3H]NECA is measured as the excess over blanks run in the presence of 100 µM 2-chloroadenosine. Total membrane-bound radioactivity is about 2.5% of that added to the test tubes. […] Specific binding to membranes is about 50% of the total bound. Protein content of the membrane suspension is determined by the method of O.H. Lowry, N.J. Rosebrough, A.L. Farr and R.J. Randall, Protein Measurements With Folin Phenol Reagent, J. Biol. Chem., 193, 265-275 (1951).

Adenosine A-1 receptor = molecular target: T2, Adenosine A-1 receptor (Rattus norvegicus, UniProt P25099); test: Test for affinity for brain adenosine A-1 receptor binding sites ([3H]cyclohexyladenosine competition); conditions: rat brain membranes, [3H]cyclohexyladenosine 0.8 nM
T2 construct: the membranes are isolated from whole animal brains; from tissue; host or cells: whole brain membranes of male Sprague-Dawley rats
T2 sequence (P25099 1-326): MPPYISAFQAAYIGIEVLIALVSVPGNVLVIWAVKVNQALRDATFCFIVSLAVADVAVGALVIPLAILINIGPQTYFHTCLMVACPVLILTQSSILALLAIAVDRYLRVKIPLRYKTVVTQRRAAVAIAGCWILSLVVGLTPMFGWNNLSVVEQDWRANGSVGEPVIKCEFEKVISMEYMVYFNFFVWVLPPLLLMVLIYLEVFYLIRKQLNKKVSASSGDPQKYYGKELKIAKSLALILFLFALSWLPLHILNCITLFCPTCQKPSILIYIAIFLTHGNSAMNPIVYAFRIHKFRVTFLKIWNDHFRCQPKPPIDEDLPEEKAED
Source text: The test described below is used to determine the potency of test compounds to compete with the ligand […] for he Adenosine A-1 receptor prepared from rat brain membranes. Male Sprague-Dawley rats are sacrificed by decapitation and the membranes are isolated from whole animal brains. (See R. Goodman, M. Cooper. M. Gavish, and S. Synder, Guanine Nucleotide and Cation Regulation of the Binding of [3H]Diethylphenylxanthine to Adenosine A-1 Receptors in Brain Membrane, Molecular Pharmacology, 21, 329-335 (1982).
Membranes are homogenized (using polytron setting 7 for 10 seconds) in 25 volumes of ice-cold 50 mM Tris-HCl buffer, pH 7.7. […]
The incubation tubes, in triplicate, receive 100 µl of [3H]cyclohexyladenosine, 0.8 nM in the assay, 200 µl of test compounds at various concentrations over the range of 10^-10 M to 10^-6 M diluted with […] Tris-HCl buffer (pH 7.7), 0.2 ml of membrane suspension (8 mg wet weight) and in a final volume of 2 ml with Tris buffer. […] The filters are counted by liquid scintillation spectrometry in 8 ml of Omniflour containing 5% Protosol.
Specific binding of [3H]cyclohexyladenosine is measured as the excess over blanks taken in the presence of 10^-5 M 2-chloroadenosine. Total membrane-bound radioactivity is about 5% of that added to the test tubes. […] Protein content of the membrane suspension is determined by the method of Lowry, et al., Ibid, 265. […]

T1 sequence (P30543 whole entry): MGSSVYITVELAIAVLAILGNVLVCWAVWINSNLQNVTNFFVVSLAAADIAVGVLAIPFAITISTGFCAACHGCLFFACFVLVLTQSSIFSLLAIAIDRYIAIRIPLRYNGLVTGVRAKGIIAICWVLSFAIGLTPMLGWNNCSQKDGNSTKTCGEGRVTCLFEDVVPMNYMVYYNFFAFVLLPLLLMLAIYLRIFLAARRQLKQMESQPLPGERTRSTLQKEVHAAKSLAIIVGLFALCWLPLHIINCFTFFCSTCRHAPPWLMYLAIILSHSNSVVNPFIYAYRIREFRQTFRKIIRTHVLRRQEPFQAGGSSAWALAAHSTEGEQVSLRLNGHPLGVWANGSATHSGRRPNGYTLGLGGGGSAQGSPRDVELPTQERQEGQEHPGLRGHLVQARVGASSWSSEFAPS

Ki (adenosine A-2 receptors) | A-1 Ki/A-2 Ki (adenosine A-2 receptors) | Ki (Adenosine A-1 receptor) | Structure (SMILES) | Ki (A-2 receptor)
– | – | – | CCCn1c(=O)c2[nH]c(-c3ccc(OCC(=O)O)cc3)nc2n(CCC)c1=O [XCC, carboxylic acid congener of 8-phenyl-1,3-dipropylxanthine] | 34 ± 13 nM
3.5 nM | 2400 | 8400 nM | C[C@H](Cc1ccccc1)Nc1nc(N)c2ncn([C@@H]3O[C@H](CO)[C@@H](O)[C@H]3O)c2n1 [Compound 1, (R)-2-[(phenylisopropyl)amino]adenosine] | –
158 nM | 37 | 5800 nM | C[C@@H](Cc1ccccc1)Nc1nc(N)c2ncn([C@@H]3O[C@H](CO)[C@@H](O)[C@H]3O)c2n1 [Compound 2, (S)-2-[(phenylisopropyl)amino]adenosine] | –
